Where two headings read alike, the source gives them in different places.
Experiments:
RIPK2 enzyme = target: T1, RIPK2 enzyme (Homo sapiens, UniProt O43353); experiment: RIPK2 inhibition (ADP-Glo Kinase Assay); assay type: biochemical; settings: RIPK2 5 nM, ATP 150 μM, MBP substrate, read-out: RIPK2 IC50
T1 construct: purchased Carna 09-128
Method in brief: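 Human RIPK2 (5 nM) preincubated with compound 30 min at room temperature in 50 mM HEPES pH 7.5, 10 mM MgCl2, 2 mM DTT, 1 mM EGTA, 0.01% Brij-35, 0.05% BSA; native swine MBP as substrate. ADP formed quantified by ADP-Glo luminescence; percent inhibition relative to DMSO and no-enzyme controls.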

human NOD2 signaling = experiment: Inhibition of human NOD2 signaling in HEK-Blue-hNOD2 cells (L18-MDP stimulated, SEAP reporter); assay type: cell-based; settings: NOD2 ligand stimulation, SEAP reporter, read-out: hNOD2 IC50
Method in brief: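 HEK-Blue-hNOD2 cells (HEK293 with NOD2 and SEAP reporter), 12500/well, treated with 10-point 3-fold compound dilutions plus L18-MDP 0.5 ng/mL final, 24 h at 37 °C. Supernatant SEAP read with QUANTI-Blue after 3 h at 620 nm; IC50 by 4-parameter fit vs DMSO±L18-MDP controls.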

[1] = target: T2, RIPK2 and XIAP protein-protein interaction (Homo sapiens, UniProt O43353); experiment: Inhibition of the interaction of RIPK2 with XIAP (NanoBRET in HEK293T cells); assay type: cell-based; settings: RIPK2 HaloTag / XIAP NanoLuc, read-out: NanoBRET Scaffolding IC50
T2 construct: the N-terminus of full-length RIPK2 was appended with the HaloTag fusion protein; expressed in transfected cells; host or cells: HEK293T
T2 sequence (O43353 whole entry, the tested form may be a part): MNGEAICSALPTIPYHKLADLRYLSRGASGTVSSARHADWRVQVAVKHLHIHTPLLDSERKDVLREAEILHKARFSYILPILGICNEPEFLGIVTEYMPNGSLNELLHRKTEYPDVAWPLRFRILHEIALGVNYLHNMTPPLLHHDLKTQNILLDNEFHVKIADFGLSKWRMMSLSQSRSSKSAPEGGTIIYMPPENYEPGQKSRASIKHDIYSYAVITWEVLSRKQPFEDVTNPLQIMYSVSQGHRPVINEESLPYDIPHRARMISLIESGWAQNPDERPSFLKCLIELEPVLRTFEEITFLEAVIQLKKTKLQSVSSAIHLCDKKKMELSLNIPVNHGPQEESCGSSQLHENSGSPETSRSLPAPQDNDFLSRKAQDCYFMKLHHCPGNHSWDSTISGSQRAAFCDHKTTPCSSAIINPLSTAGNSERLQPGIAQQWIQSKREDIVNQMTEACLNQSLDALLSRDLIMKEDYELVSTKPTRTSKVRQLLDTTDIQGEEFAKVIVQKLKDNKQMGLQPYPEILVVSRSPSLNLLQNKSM
Excerpt: An assay measuring the RIPK2 and XIAP protein-protein interaction was generated using the NanoBRET protein:protein interaction system (Promega) which measures the energy transfer from a bioluminescent protein donor (NanoLuc fusion protein) to a fluorescent protein acceptor (Halotag fusion protein). In this assay, the C-terminus of full-length XIAP was appended with the NanoLuc fusion protein and the N-terminus of full-length RIPK2 was appended with the HaloTag fusion protein. Assay medium consisted of Opti-MEM I reduced serum medium with no phenol red plus 4% heat inactivated FBS. Transfection reagents were combined in a microfuge tube as follows: 400 μL of assay medium, 8 μL of vector with N-terminus of RIPK2 HaloTag fusion protein (vector concentration at 1 μg/μL), 0.8 μL of vector with C-terminus of XIAP NanoLuc fusion protein (vector concentration at 1 μg/μL), and 24 μL of FuGENE HD transfection reagent (Promega, catalogue number E2312). […] Test compounds were prepared into a 10 mM DMSO solution and were serially diluted into 10 points using a 3-fold dilution in a 384 well plate using a TECAN EV0200.
Method: HEK293T cells were transfected with the RIPK2 HaloTag fusion and XIAP NanoLuc fusion vectors in suspension. […] Transfection reagents were pre-mixed and incubated at room temperature for 30 minutes. Then the total transfection reagent mixture was added dropwise to the 16 mL cell suspension and mixed gently. 40 μL of the cells and transfection reagent suspension was plated into a white 384 well plate and incubated at 37° C. in a CO2 incubator for 24 hours. […] Lastly, a 3× solution of NanoBRET Nano-Glo substrate in Opti-MEM I reduced serum media (no phenol red; 20 μL total volume) was added to each well and incubated for 2-3 minutes at room temperature. The plate was then measured using 460 nm filter (donor emission) and 618 nm filter (acceptor emission) in an EnVision multimode plate reader (PerkinElmer). The NanoBRET ratio values were determined by dividing the acceptor emission value by the donor emission value for each sample.

[2] = Homo sapiens, HEK-Blue hNOD2, HEK-Blue-hNOD2 cells

T1 sequence (O43353 1-299 limits assumed): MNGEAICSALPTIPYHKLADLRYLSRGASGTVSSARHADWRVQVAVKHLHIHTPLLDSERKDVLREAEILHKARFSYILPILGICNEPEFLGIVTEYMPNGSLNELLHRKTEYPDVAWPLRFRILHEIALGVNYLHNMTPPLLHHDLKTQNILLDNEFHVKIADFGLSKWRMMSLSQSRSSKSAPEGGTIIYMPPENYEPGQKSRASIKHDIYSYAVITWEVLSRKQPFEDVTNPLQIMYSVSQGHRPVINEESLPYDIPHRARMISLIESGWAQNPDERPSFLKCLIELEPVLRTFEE

| SMILES | IC50 (RIPK2 enzyme) [nM] | IC50 (human NOD2 signaling; [2]) [nM] | IC50 [1] [nM] | IC50 (human NOD2 signaling; HEK-Blue-hNOD2 cells) [nM] |
| --- | --- | --- | --- | --- |
| Cc1cc(CC(=O)Nc2cnn(C(C)(C)C)c2)c(F)cc1Oc1ccnc2ccc(-c3nccnc3C(F)(F)F)cc12 [Compound 523, N-(1-(tert-butyl)-1H-pyrazol-4-yl)-2-(2-fluoro-5-methyl-4-((6-(3-(trifluoromethyl)pyrazin-2-yl)quinolin-4-yl)oxy)phenyl)acetamide] | 4.9 | 18.5 | 133 | – |
| CNC(=O)c1ccc2nccc(Oc3c(C)cc(CC(=O)Nc4cnn(C(C)(C)C)c4)cc3F)c2c1 [Compound 469, 4-(4-(2-((1-(tert-butyl)-1H-pyrazol-4-yl)amino)-2-oxoethyl)-2-fluoro-6-methylphenoxy)-N-methylquinoline-6-carboxamide] | < 2.5 | 1.6 | 6.6 | – |
| CC(C)(C)n1cc(NC(=O)Cc2cc(Cl)c(Oc3ccnc4ccc(S(=O)(=O)C5CC5)cc34)cc2F)cn1 [Compound 464, N-(1-(tert-butyl)-1H-pyrazol-4-yl)-2-(5-chloro-4-((6-(cyclopropylsulfonyl)quinolin-4-yl)oxy)-2-fluorophenyl)acetamide] | < 2.5 | 0.5 | 7.5 | – |
| [2H]C([2H])([2H])NC(=O)c1ccc2nccc(Oc3cc(F)c(CC(=O)Nc4cnn(C56CC(C5)C6)c4)cc3C([2H])([2H])[2H])c2c1 (single isomer, unassigned) [Compound 512, 4-(4-(2-((1-(bicyclo[1.1.1]pentan-1-yl)-1H-pyrazol-4-yl)amino)-2-oxoethyl)-5-fluoro-2-(methyl-d3)phenoxy)-N-(methyl-d3)quinoline-6-carboxamide] | < 2.5 | 2.4 | 57.6 | – |
| Cc1cc(CC(=O)Nc2cnn(C(C)(C)C)c2)c(Cl)cc1Oc1ccnc2ccc(S(C)(=O)=O)cc12 [Compound 474, N-(1-(tert-butyl)-1H-pyrazol-4-yl)-2-(2-chloro-5-methyl-4-((6-(methylsulfonyl)quinolin-4-yl)oxy)phenyl)acetamide] | 8.1 | 95.6 | 621 | – |
| Cc1cc(CC(=O)Nc2cnn(C(C)(C)C)c2)c(F)cc1Oc1ccnc2ccc(C(=O)N3[C@H](C)CNC[C@@H]3C)cc12 [Compound 470, N-(1-(tert-butyl)-1H-pyrazol-4-yl)-2-(4-((6-((2R,6S)-2,6-dimethylpiperazine-1-carbonyl)quinolin-4-yl)oxy)-2-fluoro-5-methylphenyl)acetamide] | < 2.5 | 1.1 | 13.1 | – |
| Cc1cc(CC(=O)Nc2cnn(C(C)(C)C)c2)c(F)cc1Oc1ccnc2ccc(C(=O)N3C[C@@H]4C[C@H]3CN4)cc12 [Compound 471, 2-(4-((6-((1S,4S)-2,5-diazabicyclo[2.2.1]heptane-2-carbonyl)quinolin-4-yl)oxy)-2-fluoro-5-methylphenyl)-N-(1-(tert-butyl)-1H-pyrazol-4-yl)acetamide] | < 2.5 | 9.9 | 1020 | – |
| CNC(=O)c1ccc2nccc(Oc3ccc(CC(=O)Nc4cnn(C(C)(C)C)c4)cc3C)c2c1 [Compound 488, 4-(4-(2-((1-(tert-butyl)-1H-pyrazol-4-yl)amino)-2-oxoethyl)-2-methylphenoxy)-N-methylquinoline-6-carboxamide] | < 2.5 | 0.2 | 3.4 | – |
| Cc1cc(CC(=O)Nc2cnn(C(C)(C)C)c2)c(F)cc1Oc1ccnc2ccc(-c3ncncc3C)cc12 [Compound 477, N-(1-(tert-butyl)-1H-pyrazol-4-yl)-2-(2-fluoro-5-methyl-4-((6-(5-methylpyrimidin-4-yl)quinolin-4-yl)oxy)phenyl)acetamide] | < 2.5 | 5.4 | 38.7 | – |
| Cc1cc(CC(=O)Nc2cnn(C(C)(C)C)c2)c(F)cc1Oc1ccnc2ccc(-c3nccnc3C)cc12 [Compound 476, N-(1-(tert-butyl)-1H-pyrazol-4-yl)-2-(2-fluoro-5-methyl-4-((6-(3-methylpyrazin-2-yl)quinolin-4-yl)oxy)phenyl)acetamide] | < 2.5 | 5.9 | 52.1 | – |
| CNC(=O)c1ccc2nccc(Oc3cc(F)c(CC(=O)Nc4cnn(C(C)(C)C)c4)c(F)c3C)c2c1 [Compound 504, 4-(4-(2-((1-(tert-butyl)-1H-pyrazol-4-yl)amino)-2-oxoethyl)-3,5-difluoro-2-methylphenoxy)-N-methylquinoline-6-carboxamide] | < 2.5 | 0.2 | 3.4 | – |

Next, values leading:

| IC50 (RIPK2 enzyme) [nM] | IC50 (human NOD2 signaling; [2]) [nM] | IC50 [1] [nM] | IC50 (human NOD2 signaling; HEK-Blue-hNOD2 cells) [nM] | SMILES |
| --- | --- | --- | --- | --- |
| < 2.5 | 1.1 | 37.2 | – | Cc1cc(CC(=O)Nc2cnn(C(C)(C)C)c2)c(F)cc1Oc1ccnc2ccc(C(F)(F)C(N)=O)cc12 [Compound 572, 2-(4-(4-(2-((1-(tert-butyl)-1H-pyrazol-4-yl)amino)-2-oxoethyl)-5-fluoro-2-methylphenoxy)quinolin-6-yl)-2,2-difluoroacetamide] |
| < 2.5 | 0.3 | 35.1 | – | CNC(=O)c1ccc2nccc(Oc3cc(F)c(CC(=O)Nc4cnn(C56CC(C5)C6)c4)c(F)c3C)c2c1 [Compound 557, 4-(4-(2-((1-(bicyclo[1.1.1]pentan-1-yl)-1H-pyrazol-4-yl)amino)-2-oxoethyl)-3,5-difluoro-2-methylphenoxy)-N-methylquinoline-6-carboxamide] |
| < 2.5 | 1.3 | 153 | – | Cc1cc(CC(=O)Nc2cnn(C(C)(C)C)c2)ccc1Oc1ccnc2ccc(S(=N)(=O)C(C)C)cc12 (single isomer, unassigned) [Compound 547, N-(1-(tert-butyl)-1H-pyrazol-4-yl)-2-(3-methyl-4-((6-(propan-2-ylsulfonimidoyl)quinolin-4-yl)oxy)phenyl) acetamide] |
| < 2.5 | 0.6 | 36.3 | – | CNC(=O)c1cc2c(Oc3c(C)cc(CC(=O)Nc4cnn(C(C)(C)C)c4)cc3C)ccnc2cc1F [Compound 582, 4-(4-(2-((1-(tert-butyl)-1H-pyrazol-4-yl)amino)-2-oxoethyl)-2,6-dimethylphenoxy)-7-fluoro-N-methylquinoline-6-carboxamide] |
| < 2.5 | – | 108 | 0.9 | Cc1cc(CC(=O)Nc2cnn(C(C)(C)C)c2)ccc1Oc1ccnc2ccc(S(=N)(=O)C(C)C)cc12 (single isomer, unassigned) [Compound 548, N-(1-(tert-butyl)-1H-pyrazol-4-yl)-2-(3-methyl-4-((6-(propan-2-ylsulfonimidoyl)quinolin-4-yl)oxy)phenyl) acetamide] |
| < 2.5 | 8.9 | 301 | – | Cc1cc(CC(=O)Nc2cnn(C(C)(C)C)c2)ccc1Oc1ccnc2ccc(CS(C)(=O)=O)cc12 [Compound 560, N-(1-(tert-butyl)-1H-pyrazol-4-yl)-2-(3-methyl-4-((6-((methylsulfonyl)methyl)quinolin-4-yl)oxy)phenyl)acetamide] |
| < 2.5 | 0.7 | 57.3 | – | [2H]C([2H])([2H])NC(=O)c1ccc2nccc(Oc3cc(F)c(CC(=O)Nc4cnn(C56CC(C5)C6)c4)c(F)c3C)c2c1 [Compound 558, 4-(4-(2-((1-(bicyclo[1.1.1]pentan-1-yl)-1H-pyrazol-4-yl)amino)-2-oxoethyl)-3,5-difluoro-2-methylphenoxy)-N-(methyl-d3)quinoline-6-carboxamide] |
| < 2.5 | 0.9 | 42.1 | – | Cc1c(Oc2ccnc3ccc(C(N)=O)cc23)cc(F)c(CC(=O)Nc2cnn(C34CC(C3)C4)c2)c1F [Compound 556, 4-(4-(2-((1-(bicyclo[1.1.1]pentan-1-yl)-1H-pyrazol-4-yl)amino)-2-oxoethyl)-3,5-difluoro-2-methylphenoxy)quinoline-6-carboxamide] |
